Measured values from patent US6391871B1 (priority 1996, dated 2002).
“Also recorded” adds a separate entry of the source. Read-outs that look alike come from different tables or passages of the source.

Legend:
NMDA receptors = format: cell-based, chick
Procedure: Potency rating=minimum concentration required to provide total protection against neurotoxic effects of NMDA (40 μM) in chick embryo retinal tissue tests
These experiments were performed using segments of chick embryo retina. This is a widely used model for studying the production and prevention of excitotoxic phenomena, since it is a simple and inexpensive preparation, and since chick tissue provides a better model of adult mammalian neurons than embryonic or juvenile mammalian tissue. All of the glutamate receptors that mediate excitotoxic phenomena are present in chick retinas, and are sensitive to excitotoxic stimulation. By contrast, in embryonic or juvenile mammalian tissue, various glutamate receptors are not fully matured and are not responsive in the same ways that occur in adult mammalian tissue.
In these tests, NMDA is introduced into the incubation medium in a concentration ([…]) sufficient to produce a fully developed excitotoxic lesion within 30 min, displaying acute degeneration and necrosis of the majority of neurons in the inner layers of the retina. The control retinas are incubated with NMDA alone, and experimental retinas are incubated with NMDA plus a test compound that is being evaluated for NMDA antagonist properties. […] All agents that prevent NMDA from hyperactivating NMDA receptors and thereby inducing an excitotoxic neurodegenerative reaction in the chick embryo retina are considered appropriate candidate drugs for preventing NMDA receptor hyperactivation and NMDA receptor burnout in the presymptomatic stages of Alzheimer's disease.
The concentration of the test compound required to prevent NMDA from inducing neuronal degeneration in the chick retina tissue is considered a measure of its expected potency for preventing NMDA receptor hyperactivation and NMDA receptor burnout in the presymptomatic stages of Alzheimer's disease.

vacuolated PC/RS neurons = test: Safener assay: prevention of MK-801-induced vacuole formation in PC/RS neurons; settings: for ED50: 4 h; for blocking of MK-801 neurotoxicity / vacuole formation: tested against MK-801
Procedure: For each test agent, at least 5 dosages of the candidate safener agent were tested, and at least 4 rats were used in each dosage group.
The rats were sacrificed four hours after treatment, for histopathological evaluation. The number of vacuolated PC/RS neurons were counted on each side of the brain, at a rostrocaudal level immediately posterior to where the corpus callosum ceases decussating across the midline (approximately 5.6 mm caudal to bregma).
The result was subtracted from one and multiplied by 100, to calculate a percentage.
The confidence limits, in the right column, were the safener dosages that reduced vacuoles by 25% and 75%.

[1] = tested on: NMDA receptors in the hypothalamus; test: NMDA receptor hyperactivation in the hypothalamic-pituitary neuroendocrine regulatory system; settings: for damage to the reproductive regulatory (NMDA receptor) system: high dose, rats
Procedure: The explanation for this is that normally, neurons in the hypothalamus that have NMDA receptors on their surface are activated by the excitatory transmitter, glutamate, which causes them to send a message to the pituitary resulting in pituitary release of LH. When NMDA is administered, it enters the hypothalamus and mimics glutamate by acting at the same NMDA receptors that glutamate would activate. This triggers the same sequence of events that glutamate would normally trigger. The action of glutamate at these NMDA receptors represents a physiological mechanism by which glutamate normally regulates the amount of reproductive hormones (e.g., LH) that circulate in the blood. For a detailed review describing this neuroendocrine regulatory system, see Olney and Price 1978.
These excitotoxic molecules (NMDA or glutamate) enter the hypothalamus and hyperactivate NMDA receptors so vigorously and continuously that it destroys the NMDA receptor system, and leaves it permanently unresponsive to subsequent stimulation, either by exogenously administered NMDA, or by endogenous glutamate.
Affected animals develop a neuroendocrine deficiency syndrome, which leads to symptoms such as obesity, sterility, and ongoing degeneration of their reproductive organs.

cerebrocortical neurons = settings: Olney et al 1989, Corso et al 1994; cited from earlier work
[2] = tested on: neurons in neocortical and limbic brain regions; test: Histopathology of rat brain after PCP/pilocarpine treatment; format: in vivo; settings: even at very high dosages
Procedure: Adult female rats were injected subcutaneously with an NMDA antagonist drug, phencyclidine (PCP), at 50 milligrams of drug per kilogram of body weight (mg/kg sc), accompanied by a small dose of a muscarinic agonist, pilocarpine (10 mg/kg sc). At various times (4, 16, 24, 48, 72 and 96 hours) after treatment, the rats were anesthetized and perfused with fixative to allow their brains to be prepared for histological evaluation.
Degenerating neurons in various brain regions were also examined by electron microscopy, to obtain evidence for loss of synaptic complexes, and a computer-assisted cell plotting system was used to plot the location and count the frequency with which degenerating neurons were found in each brain region.
Massive loss of neurons throughout many neocortical and limbic brain regions is a hallmark characteristic of Alzheimer's disease. To establish that the NR/hypo mechanism results not only in cell injury but in cell death, the Applicants systematically examined the brains of rats 4 days following PCP/pilocarpine treatment. Sections prepared at 1 millimeter intervals from one side of the brain were stained, using hematoxylin and eosin; sections prepared at 1 millimeter intervals from the other side of the brain were stained using a silver impregnation stain. […]

[3] = tested on: pyramidal neurons in layers III and IV of the posterior cingulate and retrosplenial (PC/RS) cortices; test: In vivo assay of toxic side effects of NMDA antagonists (vacuole formation in PC/RS cortex)
sigma receptors = settings: cited from earlier work
[4] = tested on: pyramidal neurons in layers III and IV of the posterior cingulate and retrosplenial (PC/RS) cortices; settings: rat, in vivo; for neurotoxic (vacuole) reaction in PC/RS cortex, drug by itself: ip
[5] = NMDA 40 μM, chick embryo retinal tissue
[6] = dose reducing mean number of vacuolated PC/RS neurons to 50% of MK-801 (0.5 mg/kg sc) controls, rats

## COc1ccc2c(c1)[C@]13CCCC[C@@H]1[C@H](C2)N(C)CC3 [Dextromethorphan]
NMDA receptors; [5]
  POTENCY RATING = minimum concentration required to provide total protection against neurotoxic effects of NMDA: 25 µM

## CCCC(C)C1(CC)C(=O)NC(=O)NC1=O (stereo not drawn) [Pentobarbital]
Vacuolated PC/RS neurons; Rattus norvegicus, Neuron, sc
  ED50: 13.1 mg/kg

## C=CCC1(C(C)CCC)C(=O)NC(=O)NC1=O (stereo not drawn) [Secobarbital]
Vacuolated PC/RS neurons; Rattus norvegicus, Neuron, sc
  ED50: 15.3 mg/kg

## FC(F)(F)C(Cl)Br (stereo not drawn) [halothane]
Vacuolated PC/RS neurons
  blocking of MK-801 neurotoxicity / vacuole formation: effectively block vacuole formation

## O=[N+]([O-])c1cc2nc(O)c(O)nc2cc1[N+](=O)[O-] [DNQX]
NMDA receptors; [5]
  POTENCY RATING = minimum concentration required to provide total protection against neurotoxic effects of NMDA: 100 µM

## O=C(O)[C@@H]1C[C@H](CP(=O)(O)O)CCN1 [CGS 19755]
NMDA receptors; [5]
  POTENCY RATING = minimum concentration required to provide total protection against neurotoxic effects of NMDA: 5 µM

## Cc1cc2c(s1)Nc1ccccc1N=C2N1CCN(C)CC1 [Olanzapine]
Vacuolated PC/RS neurons; Rattus norvegicus, Neuron, sc
  ED50: 0.6 mg/kg

## CC(C(O)c1ccc(O)cc1)N1CCC(Cc2ccccc2)CC1 (stereo not drawn) [Ifenprodil]
NMDA receptors
  POTENCY RATING = minimum concentration required to provide total protection against neurotoxic effects of NMDA: 50 µM

## FC(F)OC(Cl)C(F)(F)F (stereo not drawn) [isoflurane]
Vacuolated PC/RS neurons
  blocking of MK-801 neurotoxicity / vacuole formation: effectively block vacuole formation

## COc1cc(CC(C)N)c(OC)cc1I (stereo not drawn) [DOI]
Vacuolated PC/RS neurons; [6]
  ED50: 1.05 mg/kg, ip

## CN[C@H](CC(=O)O)C(=O)O [NMDA, n-methyl-D-aspartate]
[1]; NMDA subcutaneously or intravenously, rodents
  pituitary secretion of reproductive hormones (LH): causing the pituitary gland to secrete into the blood certain reproductive hormones such as luteinizing hormone
[1]
  damage to the reproductive regulatory (NMDA receptor) system: permanently damage and inactivate this reproductive regulatory system

## O=C(O)c1cc(O)c2ccc(Cl)cc2n1 [7-CL-Kynurenic acid, 7-chloro-kynurenic acid]
NMDA receptors
  POTENCY RATING = minimum concentration required to provide total protection against neurotoxic effects of NMDA: 50 µM

## CCNC1(c2cccs2)CCCCC1=O (stereo not drawn) [Tiletamine]
Cerebrocortical neurons
  pathological changes in cerebral cortex / corticolimbic regions of adult rats: cause pathological changes in the cerebral cortex of adult rats
NMDA receptors; [5]
  POTENCY RATING = minimum concentration required to provide total protection against neurotoxic effects of NMDA: 5 µM

## N[C@H](CCCP(=O)(O)O)C(=O)O [D-AP5, D-2-amino-5-phosphonopentanoic acid]
NMDA receptors; [5]
  POTENCY RATING = minimum concentration required to provide total protection against neurotoxic effects of NMDA: 25 µM

## N[C@@H](CCC(=O)O)C(=O)O [glutamate]
[1]
  damage to the reproductive regulatory (NMDA receptor) system: permanently damage and inactivate this reproductive regulatory system

## CC[C@@H]1C(=O)OC[C@@H]1Cc1cncn1C [pilocarpine]
[2]
  brain damage by pilocarpine by itself: does not and cannot cause the type of damage observed in these tests

## C=CCN1CC[C@]2(C)c3cc(O)ccc3C[C@H]1[C@H]2C [SKF (+)10,047]
[3]; adult female rats, ip, sacrificed four hours after treatment
  neurotoxic (vacuole) reaction in PC/RS cortex, drug by itself: neither SKF (+)10,047 by itself, nor eliprodil by itself, caused a vacuole reaction; also recorded: neither SKF (+)10,047 nor ibogaine by itself caused vacuoles

## O=C(CCCN1CCC(O)(c2ccc(Cl)cc2)CC1)c1ccc(F)cc1 [Haloperidiol]
Vacuolated PC/RS neurons; Rattus norvegicus, Neuron, sc
  ED50: 5.1 mg/kg

## N#Cc1cc2[nH]c(=O)c(=O)[nH]c2cc1[N+](=O)[O-] [CNQX]
NMDA receptors
  POTENCY RATING = minimum concentration required to provide total protection against neurotoxic effects of NMDA: 200 µM

## CN1CCN(C2=Nc3cc(F)ccc3Cc3ccccc32)CC1 [Fluperlapine]
Vacuolated PC/RS neurons; Rattus norvegicus, Neuron, sc
  ED50: 2.4 mg/kg

## CSc1ccc2c(c1)N(CCC1CCCCN1C)c1ccccc1S2 (stereo not drawn) [Thioridazine]
Vacuolated PC/RS neurons; Rattus norvegicus, Neuron, sc
  ED50: 55.3 mg/kg

## COc1cc(CC(C)N)c(OC)cc1Br (stereo not drawn) [DOB]
Vacuolated PC/RS neurons; [6]
  ED50: 0.36 mg/kg, ip

## C[C@]12N[C@H](Cc3ccccc31)c1ccccc12 [MK-801, (+)-5-methyl-10,11-dihydro-5H-di[a,d]-cyclohepten-5,10-imine]
NMDA receptors
  POTENCY RATING = minimum concentration required to provide total protection against neurotoxic effects of NMDA: […]
Vacuolated PC/RS neurons; MK-801 0.5 mg/kg sc, all treated rats
  neurotoxic reaction induced by MK-801: fully developed neurotoxic reaction

## OC(CCN1CCCCC1)(c1ccccc1)C1CCCCC1 (stereo not drawn) [Trihexyphenidyl]
Sigma receptors
  binding at sigma receptors: strong binding affinity not only to muscarinic receptors, but also to sigma receptors
Vacuolated PC/RS neurons; Rattus norvegicus, Neuron, sc
  ED50: 2.14 mg/kg

## CC(C)c1cccc(C(C)C)c1O [propofol]
Vacuolated PC/RS neurons
  blocking of MK-801 neurotoxicity / vacuole formation: effectively block vacuole formation

## CN1[C@@H]2C[C@@H](OC(=O)[C@H](CO)c3ccccc3)C[C@H]1[C@@H]1O[C@@H]12 [Scopolamine]
Vacuolated PC/RS neurons; Rattus norvegicus, Neuron, sc
  ED50: 0.13 mg/kg

## C[C@@H]1CN(CCCn2c3ccccc3c3ccccc32)C[C@H](C)N1 [Rimcazole]
Vacuolated PC/RS neurons; Rattus norvegicus, Neuron, sc
  ED50: 17.8 mg/kg

## CCN(CC)C(=O)N[C@H]1C=C2c3cccc4[nH]cc(c34)C[C@H]2N(C)C1 [Lisuride]
Vacuolated PC/RS neurons
  blocking of MK-801 neurotoxicity / vacuole formation: block MK-801 toxicity

## CN1C(=O)CN=C(c2ccccc2)c2cc(Cl)ccc21 [Diazepam]
Vacuolated PC/RS neurons; Rattus norvegicus, Neuron, sc
  ED50: 1 mg/kg

## CN1[C@@H]2CC[C@H]1C[C@@H](OC(c1ccccc1)c1ccccc1)C2 [Benztropine]
Vacuolated PC/RS neurons; Rattus norvegicus, Neuron, sc
  ED50: 1.29 mg/kg

## Clc1cccc(Cl)c1N=C1NCCN1 [Clonidine]
Vacuolated PC/RS neurons; Rattus norvegicus, Neuron, sc
  ED50: 0.044 mg/kg

## Ibogaine
Sigma receptors
  binding at sigma receptors: strong binding affinity at sigma receptors
NMDA receptors
  NMDA antagonist properties in the chick retina assay: definite NMDA antagonist properties
NMDA receptors; [5]
  POTENCY RATING = minimum concentration required to provide total protection against neurotoxic effects of NMDA: 15 µM

## O=C(O)C1CN(CCCP(=O)(O)O)CCN1 (stereo not drawn) [CPP]
NMDA receptors; [5]
  POTENCY RATING = minimum concentration required to provide total protection against neurotoxic effects of NMDA: 10 µM

## CC(Oc1c(Cl)cccc1Cl)C1=NCCN1 (stereo not drawn) [Lofexidine]
Vacuolated PC/RS neurons; Rattus norvegicus, Neuron, sc
  ED50: 0.38 mg/kg

## N=C(N)N/N=C/c1c(Cl)cccc1Cl [Guanabenz]
Vacuolated PC/RS neurons; Rattus norvegicus, Neuron, sc
  ED50: 0.21 mg/kg

## Clc1cc(I)cc(Cl)c1NC1=NCCN1 [p-Iodoclonidine]
Vacuolated PC/RS neurons; [6]
  ED50: 1.3 mg/kg, ip

## OC(CCN1CCCC1)(c1ccccc1)C1CCCCC1 (stereo not drawn) [Procyclidine]
NMDA receptors; [5]
  POTENCY RATING = minimum concentration required to provide total protection against neurotoxic effects of NMDA: 15 µM

## CN1CCN(C2=Nc3cc(Cl)ccc3Nc3ccccc32)CC1 [Clozapine]
Vacuolated PC/RS neurons; Rattus norvegicus, Neuron, sc
  ED50: 2.8 mg/kg

## OC(CN1CCC(Cc2ccc(F)cc2)CC1)c1ccc(Cl)cc1 (stereo not drawn) [Eliprodil]
Sigma receptors
  binding at sigma receptors: strong binding activity at sigma receptors
[4]; female, Sprague Dawley, 4 h
  neurotoxic (vacuole) reaction in PC/RS cortex, drug by itself: neither SKF (+)10,047 by itself, nor eliprodil by itself, caused a vacuole reaction
[4]
  neurotoxic reaction in the PC/RS cortex at the highest dose tested: did not cause a neurotoxic reaction
  neurotoxic (vacuole) reaction in PC/RS cortex, drug by itself: did not cause this neurotoxic reaction
NMDA receptors
  NMDA antagonist properties in the chick retina assay: definite NMDA antagonist properties
  POTENCY RATING = minimum concentration required to provide total protection against neurotoxic effects of NMDA: 30 µM
[3]; rats
  nearly a lethal dose (highest dose tested): 100 mg/kg/ip
